Assay results taken from patent US20090099094A1, “Use of Somatostatin Agonists to Treat Medullary Thyroid Carcinoma” (priority 2007, published 2009).
Square brackets hold non-standard residues; d marks the D form. Peptide text beside a SMILES is read from it. Tic = O=C(O)[C@@H]1Cc2ccccc2CN1; Abu = CC[C@H](N)C(=O)O

Tests used:
SSTR5 = SSTR5 (Homo sapiens, UniProt P35346); assay: SSTR receptor binding affinity (Ki), SSTR5; details: read-out: SSTR Specificity Ki SSTR5
[1] = test system: medullary thyroid carcinoma primary cultures; assay: Calcitonin secretion by MTC primary cultures (IRMA); assay type: cell-based, human; details: 10^−8 M, six hours
SSTR1 = SSTR1 (Homo sapiens, UniProt P30872); assay: SSTR receptor binding affinity (Ki), SSTR1; details: read-out: SSTR Specificity Ki SSTR1
Chain of SSTR1 (P30872 whole entry): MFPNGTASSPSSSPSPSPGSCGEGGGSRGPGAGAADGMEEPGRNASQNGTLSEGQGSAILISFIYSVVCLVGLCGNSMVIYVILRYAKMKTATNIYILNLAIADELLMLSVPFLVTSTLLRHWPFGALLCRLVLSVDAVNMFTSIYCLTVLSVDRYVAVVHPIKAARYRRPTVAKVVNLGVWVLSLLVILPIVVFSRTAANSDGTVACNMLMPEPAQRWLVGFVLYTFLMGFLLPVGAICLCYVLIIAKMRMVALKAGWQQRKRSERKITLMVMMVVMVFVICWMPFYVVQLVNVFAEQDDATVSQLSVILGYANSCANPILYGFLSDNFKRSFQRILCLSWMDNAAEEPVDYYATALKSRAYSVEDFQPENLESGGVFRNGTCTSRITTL

[2] = test system: medullary thyroid carcinoma primary cultures; assay: Cell viability of MTC primary cultures (MTT); assay type: cell-based, human; details: 10^−8 M, forty-eight hours
SSTR2 = SSTR2 (Homo sapiens, UniProt P30874); assay: SSTR receptor binding affinity (Ki), SSTR2; details: read-out: SSTR Specificity Ki SSTR2
Chain of SSTR2 (P30874 whole entry): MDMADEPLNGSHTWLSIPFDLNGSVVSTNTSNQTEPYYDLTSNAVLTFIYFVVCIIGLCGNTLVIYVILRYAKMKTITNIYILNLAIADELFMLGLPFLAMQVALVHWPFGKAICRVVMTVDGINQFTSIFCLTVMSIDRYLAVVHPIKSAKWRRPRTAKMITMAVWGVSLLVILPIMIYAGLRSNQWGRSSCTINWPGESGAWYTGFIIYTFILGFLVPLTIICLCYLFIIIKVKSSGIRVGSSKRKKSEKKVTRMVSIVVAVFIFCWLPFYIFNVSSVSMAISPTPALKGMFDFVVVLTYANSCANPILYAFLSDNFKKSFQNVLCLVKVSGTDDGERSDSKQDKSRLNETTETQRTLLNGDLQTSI

SSTR3 = SSTR3 (Homo sapiens, UniProt P32745); assay: SSTR receptor binding affinity (Ki), SSTR3; details: read-out: SSTR Specificity Ki SSTR3
Chain of SSTR3 (P32745 whole entry): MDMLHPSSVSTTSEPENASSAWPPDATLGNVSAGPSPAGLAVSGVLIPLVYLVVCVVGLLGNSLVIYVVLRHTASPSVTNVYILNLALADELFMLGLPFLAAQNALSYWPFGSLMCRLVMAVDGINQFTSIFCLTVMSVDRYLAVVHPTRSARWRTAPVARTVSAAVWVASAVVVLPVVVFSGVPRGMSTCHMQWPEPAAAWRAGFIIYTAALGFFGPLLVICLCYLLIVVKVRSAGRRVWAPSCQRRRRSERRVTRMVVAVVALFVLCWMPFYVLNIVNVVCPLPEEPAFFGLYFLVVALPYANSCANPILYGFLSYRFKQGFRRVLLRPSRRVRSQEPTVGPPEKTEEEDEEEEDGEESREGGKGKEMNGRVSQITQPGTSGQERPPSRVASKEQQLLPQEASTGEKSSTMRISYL

SSTR4 = SSTR4 (Homo sapiens, UniProt P31391); assay: SSTR receptor binding affinity (Ki), SSTR4; details: read-out: SSTR Specificity Ki SSTR4
Chain of SSTR4 (P31391 whole entry): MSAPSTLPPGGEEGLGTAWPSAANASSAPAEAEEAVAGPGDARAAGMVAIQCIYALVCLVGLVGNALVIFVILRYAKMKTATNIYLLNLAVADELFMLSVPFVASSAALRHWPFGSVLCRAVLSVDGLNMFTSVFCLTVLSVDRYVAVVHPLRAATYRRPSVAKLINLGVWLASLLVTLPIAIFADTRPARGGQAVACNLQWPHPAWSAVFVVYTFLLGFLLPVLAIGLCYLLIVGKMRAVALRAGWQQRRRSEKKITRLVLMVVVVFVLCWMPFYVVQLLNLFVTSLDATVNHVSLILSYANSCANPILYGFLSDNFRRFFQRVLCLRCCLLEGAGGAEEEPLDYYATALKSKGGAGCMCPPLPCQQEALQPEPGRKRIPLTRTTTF

[3] = MTC primary culture #1 (non responder)
[4] = MTC primary culture #2 (non responder)
[5] = MTC primary culture #3 (responder)
[6] = MTC primary culture #4 (non responder)
[7] = MTC primary culture #5 (responder)
[8] = MTC primary culture #6 (responder)
[9] = MTC primary culture #7 (responder)
[10] = MTC primary culture #8 (non responder)
[11] = MTC primary culture #9 (non responder)
[12] = MTC primary culture #10 (non responder)
[13] = MTC primary culture #11 (responder)
[14] = MTC primary culture #12 (responder)
[15] = MTC primary culture #13 (responder)
[16] = MTC primary culture #14 (responder)
[17] = MTC primary culture #15 (responder)
[18] = MTC primary culture #16 (responder)
[19] = MTC primary culture #17 (non responder)
[20] = MTC primary culture #18 (non responder)
[21] = group B (lanreotide non-responsive) mean

Chain of SSTR5 (P35346 whole entry): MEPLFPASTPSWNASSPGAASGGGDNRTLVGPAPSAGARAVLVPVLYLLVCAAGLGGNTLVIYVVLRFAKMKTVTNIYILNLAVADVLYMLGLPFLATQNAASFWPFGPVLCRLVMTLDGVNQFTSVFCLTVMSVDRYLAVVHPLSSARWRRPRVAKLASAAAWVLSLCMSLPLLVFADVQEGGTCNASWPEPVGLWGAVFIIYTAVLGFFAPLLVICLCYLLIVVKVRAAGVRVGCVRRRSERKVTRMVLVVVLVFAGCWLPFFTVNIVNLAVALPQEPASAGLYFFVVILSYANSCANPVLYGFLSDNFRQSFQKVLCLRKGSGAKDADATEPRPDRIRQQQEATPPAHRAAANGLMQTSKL

Which results are given for CC[C@@H]1NC(=O)[C@H](CCCCN)NC(=O)[C@@H](Cc2c[nH]c3ccccc23)NC(=O)[C@H](Cc2ccc(O)cc2)NC(=O)[C@@H]2Cc3ccccc3CN2C(=O)[C@H](Cc2ccccc2)NC1=O [Cmpd #2, c[Tic-Tyr-D-Trp-Lys-Abu-Phe]] (cyclo([Tic]Y[dW]K[Abu]F))?
Ki (SSTR5): 214 nM; % CT secretion inhibition vs. control [1, 3]: −6.1%; % CT secretion inhibition vs. control [1, 4]: −4.3%; % CT secretion inhibition vs. control [1, 5]: −36.0%; % CT secretion inhibition vs. control [1, 6]: 8.9%; % CT secretion inhibition vs. control [1, 7]: −8.6%; % CT secretion inhibition vs. control [1, 8]: −5.7%; % CT secretion inhibition vs. control [1, 9]: −51.3%; % CT secretion inhibition vs. control [1, 10]: −2.6%; % CT secretion inhibition vs. control [1, 11]: 6.7%; % CT secretion inhibition vs. control [1, 12]: 11.6%; % CT secretion inhibition vs. control [1, 13]: 10.3%; % CT secretion inhibition vs. control [1, 14]: −12.4%; % CT secretion inhibition vs. control [1, 15]: −48.6%; % CT secretion inhibition vs. control [1, 16]: 1.6%; % CT secretion inhibition vs. control [1, 17]: −22.9%; % CT secretion inhibition vs. control [1, 18]: −31.7%; % CT secretion inhibition vs. control [1, 19]: −2.6%; % CT secretion inhibition vs. control [1, 20]: −1.5%; calcitonin secretion, change vs. control (signed, negative = reduced) ([1]; group A (lanreotide responsive) mean): −23%; calcitonin secretion, change vs. control (signed, negative = reduced) [1, 21]: not reduced; Ki (SSTR1): 1000 nM; % cell viability reduction vs. control [2, 3]: −5.0%; % cell viability reduction vs. control [2, 4]: −56.4%; % cell viability reduction vs. control [2, 5]: −3.2%; % cell viability reduction vs. control [2, 6]: −17.9%; % cell viability reduction vs. control [2, 7]: −8.6%; % cell viability reduction vs. control [2, 8]: 3.2%; % cell viability reduction vs. control [2, 9]: 54.4%; % cell viability reduction vs. control [2, 10]: −15.3%; % cell viability reduction vs. control [2, 11]: −8.8%; % cell viability reduction vs. control [2, 12]: 12.1%; % cell viability reduction vs. control [2, 13]: −0.4%; % cell viability reduction vs. control [2, 14]: 15.8%; % cell viability reduction vs. control [2, 15]: −5.3%; % cell viability reduction vs. control [2, 16]: 8.2%; % cell viability reduction vs. control [2, 17]: 5.6%; % cell viability reduction vs. control [2, 18]: −3.0%; % cell viability reduction vs. control [2, 19]: −10.3%; % cell viability reduction vs. control [2, 20]: −20.6%; cell viability, change vs. control (signed, negative = reduced) [2, 21]: −13%; Ki (SSTR2): 0.34 nM; Ki (SSTR3): 412 nM; Ki (SSTR4): 1000 nM
